Test results reported in ChEMBL document CHEMBL1201862, “PubChem BioAssay data set” (2004).
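Interpolation was linear, between the two tested concentrations surrounding the appropriate level; five concentrations were tested over 48 hours in 96-well plates. Here, GI50 denotes the concentration required for 50% inhibition of growth.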 Calls of active or inactive are those of the source. Cut-off read from the data, not from the text of the source: active = GI50 up to about 1.1 µM and inactive = higher.

Key:
Test in all cases: inhibition of tumour cell growth, NCI panel, 48 h
DMS-273 = test system: DMS-273
HOP-18 = test system: HOP-18
DLD-1 = test system: DLD-1
DMS-114 = test system: DMS-114
LXFL 529 = test system: LXFL 529
KM-20L2 = test system: KM-20L2
RXF 631 = test system: RXF 631
M19-MEL = test system: M19-MEL
XF498 = test system: XF498

Structure (SMILES)	GI50 (DMS-273)	GI50 (HOP-18)	GI50 (DLD-1)	GI50 (DMS-114)	GI50 (LXFL 529)	GI50 (KM-20L2)	GI50 (RXF 631)	GI50 (M19-MEL)	GI50 (XF498)
Cc1cc2occ(-c3ccc(Cl)cc3)c2c(=O)o1	> 100 µM (inactive)	> 100 µM (inactive)	76 µM (inactive)	> 100 µM (inactive)	> 100 µM (inactive)	> 100 µM (inactive)	> 100 µM (inactive)		
CC(Oc1ccc(OCC2CCCCC2)cc1)C(=O)O (configuration not stated)	> 100 µM (inactive)	> 100 µM (inactive)	> 100 µM (inactive)	> 100 µM (inactive)	> 100 µM (inactive)			> 100 µM (inactive)	> 100 µM (inactive)
CCc1cccc(C(C)C)c1NC(=O)CCl	> 100 µM (inactive)		> 100 µM (inactive)		> 100 µM (inactive)	> 100 µM (inactive)	19.7 µM (inactive)	58.3 µM (inactive)	> 100 µM (inactive)
N#CC(C(=O)C(=O)Nc1c(Cl)cccc1Cl)c1ccccc1 (configuration not stated)	> 10 µM (inactive)	> 10 µM (inactive)	> 10 µM (inactive)	> 10 µM (inactive)	> 10 µM (inactive)	> 10 µM (inactive)	> 10 µM (inactive)	> 10 µM (inactive)	> 100 µM (inactive)
CC1OC(CC2C=CCc3c(O)c4c(c(O)c32)C(=O)c2ccccc2C4=O)CC(NC(=O)C(F)(F)F)C1O (configuration not stated)	6.32 µM (inactive)		7.38 µM (inactive)	10 µM (inactive)	6.87 µM (inactive)	16.3 µM (inactive)		8.22 µM (inactive)	1.91 µM (inactive)
CCCCc1c2c(nc3c1CCc1cc(C=O)c(N)nc1-3)/C(=C/c1ccccc1)CCC2	> 100 µM (inactive)	> 100 µM (inactive)		> 100 µM (inactive)	> 100 µM (inactive)	> 100 µM (inactive)		> 100 µM (inactive)	44.4 µM (inactive)
COc1cc2c(c(O)c1C)C(=O)C(Cl)=CC2=O	19.2 µM (inactive)	16.5 µM (inactive)	17.4 µM (inactive)	16.6 µM (inactive)	7.43 µM (inactive)	23.1 µM (inactive)	12.1 µM (inactive)	7.98 µM (inactive)	20 µM (inactive)
COc1ccccc1/C=C(\NC(=O)c1ccccc1)c1nc2ccccc2[nH]1		46.3 µM (inactive)	37.3 µM (inactive)	29.4 µM (inactive)	29.9 µM (inactive)	59.8 µM (inactive)	> 100 µM (inactive)	38.3 µM (inactive)	36.1 µM (inactive)
CCC12C=CCN3CCC4(C(=C(C(=O)OC)[C@@H]1O)Nc1ccccc14)C32 (some centres not stated)	1.69 µM (inactive)	1.71 µM (inactive)	1.67 µM (inactive)	1.69 µM (inactive)	1.66 µM (inactive)	1.84 µM (inactive)		1.74 µM (inactive)	1.63 µM (inactive)
CC(CCC[C@H](C)CO)[C@H]1[C@@H](O)C(O)C2[C@@H]3C[C@@H](O)C4(O)C[C@@H](O)CC[C@]4(C)C3CC[C@@]21C (some centres not stated)	> 100 µM (inactive)	> 100 µM (inactive)	> 100 µM (inactive)	84.7 µM (inactive)	> 100 µM (inactive)	> 100 µM (inactive)		> 100 µM (inactive)	> 100 µM (inactive)
CCN(CCCl)CCCNc1c2ccccc2nc2ccc(OC)cc12	0.059 µM (active)		0.084 µM (active)	0.314 µM (active)	0.0912 µM (active)	0.181 µM (active)		0.216 µM (active)	0.116 µM (active)
COc1cc(/C=C/c2ccncc2)cc(OC)c1OC	96.6 µM (inactive)	70.8 µM (inactive)	> 100 µM (inactive)	> 100 µM (inactive)	55 µM (inactive)	65.5 µM (inactive)	31.6 µM (inactive)		22.4 µM (inactive)
